Like-named read-outs stand apart in the source and are kept apart here.
How the values were obtained:
proteasome = target: T1, proteasome (Homo sapiens, UniProt P28074); assay: Proteasome inhibitory activity (Suc-Leu-Leu-Val-Tyr-AMC cleavage, crude enzyme solution from HeLa S3 cell extract); format: biochemical
T1 construct: The obtained high molecular fraction (molecular weight >500K) was used as an enzyme solution for the detection of proteasome activity; endogenous in cells; host or cells: HeLa S3 cells: homogenate, 100,000G supernatant, >500K fraction from Centricon-500
Protocol: 1 x 10^9 of HeLa S3 cells were dispersed in 5 ml of the buffer A [20 mmol/L of Tris (pH 7.5), 2 mmol/L of ATP, 5 mmol/L of MgCl2, 1 mmol/L of dithiothreitol (DTT)], and then homogenized at 4°C. The supernatant centrifuged at 100,000G was concentrated by a Centricon-500 (supplied by Amicon) and diluted with 2.5 ml of the buffer B [25 mmol/L of Tris/HCl (pH 7.5), 2 mmol/L of ATP, 1 mmol/L of DTT, 20% of glycerol]. The obtained high molecular fraction (molecular weight >500K) was used as an enzyme solution for the detection of proteasome activity. Suc-Leu-Leu-Val-Tyr-AMC [Suc: Succinyl; AMC: Aminomethylcoumarin](supplied by Peptide Institute, Inc.) was used as a substrate for measuring inhibitory activity for proteasome (stored as a 2 mmol/L DMSO solution). The reaction was carried out by the following method using 96-well microtiter plates. To 96 µl of a reaction buffer [20 mmol/L of Tris/HCl (pH 8), 0.5 mmol/L of EDTA, 0.04% of sodium dodecylsulfate (SDS)] were added 1 µl of a drug solution (DMSO) and 2 µl of an enzyme solution followed by adding 1 µl of a substrate solution thereto, and then the mixture was incubated at 37°C for one hour. […]

[1] = tested on: Human colon cancer, WiDr cells; assay: Antiproliferative activity in WiDr cells (MTT, 72 hours); format: cell-based
Protocol: Human colon cancer, WiDr cells suspended in MEM media containing 10% of fetal calf serum were seeded in 96-well microtiter plates at 2 x 10^3cells/well, and precultured in an incubator with 5% of CO2 at 37°C for 24 hours. Then, each compound diluted appropriately with the media was added into the well at 50 µl/well. At this time, a final concentration of each compound is up to 100 µmol/l or 1 µmol/l. The cells were cultured in the incubator with 5% of CO2 at 37°C for additional 72 hours. At 5 hours before the culturing was terminated, MTT [3-(4,5-dimethylthiazol-2-yl)-2,5-[…] bromide] dissolved in the medium at a final concentration of 1 mg/mL was added into the well at 50 µl/well. After the culturing, dimethyl sulfoxide was added to the well at 150 µl/well, and the plate was vigorously stirred using a plate mixer to dissolve crystals of MTT-formazan completely. […]

[2] = tested on: human colon cancer cell line, WiDr transplanted in nude mice; assay: Antitumor activity for WiDr transplanted in nude mice; format: in vivo, BALB/c-nu/nu mouse; details: intraperitoneally for 5 consecutive days, 7 days, WiDr solid tumor in mice
Protocol: Compound 4 was dissolved in ethanol and then prepared at the fixed concentrations by adding cremophor EL (supplied by SIGMA) and saline. At this time, final concentrations of ethanol, cremophor EL, and saline are 5%, 7.5% and 87.5%, respectively. 2 mm x 2 mm of the tumor piece of human colon cancer cell line, WiDr was subcutaneously transplanted in the ventral site of a BALB/c-nu/nu mouse. At the time when a tumor volume [a major axis (a), a minor axis (b): ab^2/2] attained to 25-60 mm^3, the test compound prepared was intraperitoneally administered for 5 consecutive days to five mice as one proup.
For evaluating antitumor activity of the compound, the tumor volume was measured everyday, and the ratio of the volume (V) on the day of each measurement to the volume (V0) on the day when the administration of the compound was started was obtained to calculate T/C(%).

[3] = crude proteasome fraction (>500K) from HeLa S3 cells, substrate Suc-Leu-Leu-Val-Tyr-AMC, 37°C for one hour, read-out: IC50

Compound | IC50 (proteasome; [3]) | IC50 [1] | T/C ([2]; Dose 5.0 mg/kg/day) | T/C ([2]; Dose 10.0 mg/kg/day) | IC50 (proteasome)
CCC(C)C1C(=O)OC1C(=O)NC1CC1CC(NC(=O)C(C)N)C(=O)OCc1ccccc1 (centres unmarked) [Compound 4] | 30 nM | 50 nM | 56% | 49% | –
CCC(C)C1C(=O)OC1C(=O)NC1CC1CC(NC(=O)C(C)NC(=O)OC(C)(C)C)C(=O)OCCO (centres unmarked) [Compound 16] | 52 nM | 950 nM | – | – | –
C=CCOC(=O)C(CC1CC1NC(=O)C1OC(=O)C1C(C)CC)NC(=O)C(C)N (centres unmarked) [Compound 10] | 46 nM | 68 nM | – | – | –
CCC(C)C1C(=O)OC1C(=O)NC1CC1CC(NC(=O)C(C)NC(=O)OC(C)(C)C)C(=O)OCC[Si](C)(C)C (centres unmarked) [Compound 15] | – | 200 nM | – | – | 18 nM
CCCCNC(=O)C(CC1CC1NC(=O)C1OC(=O)C1C(C)CC)NC(=O)C(C)NC(=O)OC(C)(C)C (centres unmarked) [Compound 24] | – | 20 nM | – | – | 15 nM
CC(C)C[C@@H]1C(=O)O[C@H]1C(=O)NC1CC1CC(NC(=O)OC(C)(C)C)C(=O)NCc1cccc2ccccc12 (some centres unmarked) [Compound 90] | 22 nM | 40000 nM | – | – | –

Continued, in another order:

IC50 (proteasome; [3]) | IC50 [1] | Compound | T/C ([2]; Dose 5.0 mg/kg/day) | T/C ([2]; Dose 10.0 mg/kg/day) | IC50 (proteasome)
6.2 nM | 190 nM | CCC(C)C1C(=O)OC1C(=O)NC1CC1CC(NC(=O)C(C)NC(=O)OC(C)(C)C)C(=O)NCc1ccccc1 (centres unmarked) [Compound 19] | – | – | –
15 nM | 37 nM | CCC(C)C1C(=O)OC1C(=O)NC1CC1CC(NC(=O)C(C)NC(=O)OC(C)(C)C)C(=O)OCc1ccccc1 (centres unmarked) [Compound 3] | – | – | –
19 nM | 10 nM | CCCCOC(=O)C(CC1CC1NC(=O)C1OC(=O)C1C(C)CC)NC(=O)C(C)NC(=O)OC(C)(C)C (centres unmarked) [Compound 11] | – | – | –
14 nM | 3900 nM | CCC(C)C1C(=O)OC1C(=O)NC1CC1CC(NC(=O)C(C)N(Cc1ccccc1)Cc1ccccc1)C(=O)OCc1ccccc1 (centres unmarked) [Compound 43] | – | – | –
5 nM | 93 nM | CCC(C)C1C(=O)OC1C(=O)NC1CC1CC(NC(=O)C(C)NC(=O)OCc1ccccc1)C(=O)OCc1ccccc1 (centres unmarked) [Compound 28] | – | – | –
19 nM | 180 nM | CCC(C)C1C(=O)OC1C(=O)NC1CC1CC(NC(=O)C(C)NC(=O)OC(C)(C)C)C(=O)OCOC (centres unmarked) [Compound 17] | – | – | –
